Assays:
[1] = system: Bovine D7.5 embryos at the blastocyst stage; experiment: Culture of crushed whole bovine blastocysts on MEF feeder layer with 5′-azacytidine (primary and passaged outgrowths); assay type: cell-based
Method: Bovine D7.5 embryos at the blastocyst stage were crushed and depressed into mouse embryonic feeder (MEF) layers, using fine-tipped glass micropipettes or Ultra-fine needle insulin syringe, and cultured in alpha-MEM medium in presence of bFGF, hEGF, ITS, hrLIF, 2-beta-ME, Glutamax, NEAA and 20% FCS. On the same day or on the following day the media was replaced with fresh media containing (treated group) or not containing (untreated group) 5 μM 5′-azacytidine. The media in each group was changed every 3 days.
After seven to nine days, non-treated and treated “squashed” whole embryos developed morphologically distinguishable primary embryonal outgrowths.
These cell colonies reached confluence in 14-21 days, depending on the number of pieces that were placed in the dish. The growing colonies which developed into confluent monolayers expressed marker of pluripotency, such as Oct4.

[2] = system: mouse pre-implantation embryos (129sv x OG2 Oct4-EGFP); experiment: Isolation of ES-like cells from mouse morula/blastocysts pre-treated with 5-aza-cytidine (Oct4-EGFP reporter); assay type: cell-based; details: 1 μM for 24 h pre-treatment
Method: Pre-pubertal (5-6 week old) 129sv females were super-ovulated using a routine protocol (1 IU PMSG and HCG injected i.p. 48h apart) before mating with OG2 males. […] The OG2 males, used as studs for mating, were C57/B16 strain and transgenic for an Oct4-EGFP construct. All pluripotent cells from these mice express GFP and this property was exploited in this study with GFP being used as a fluorescent marker to facilitate the identification of ESCs once derived. Zygotes were collected from the oviduct of humanely killed female mice. Cumulus cells were removed from zygotes by treatment with Hyaluronidase (300 IU/ml) in KSOM medium (Chemicon). The zygotes were carefully washed to remove hyaluronidase and transferred to a fresh dish with culture drops in a 37° C. incubator and allowed to develop to the morula/blastocyst stage. Treatment of Morula/Blastocyst with 1 μM of 5-aza-cytidine. Morula/blastocysts were cultured in the KSOM culture drops supplemented with 1 μM 5-aza-cytidine for 24 hr. F1 (CBA/C57) MEF's were used as a feeder layer to facilitate attachment of embryos and subsequent isolation and support of ESCs. MEF's were inactivated by treatment with mitomycin C (10 μg/ml) for 2.5 hr in the 37° C. incubator and plated at the rate of 3×10^5 cells/ml per 6 cm dish. […]

Nc1ncn([C@@H]2O[C@H](CO)[C@@H](O)[C@H]2O)c(=O)n1 [5′-azacytidine, 5-azacytidine]
Cell composition/morphology of primary embryonal outgrowth (treated outgrowth, TRO) ([1]; 5 μM, after seven to nine days of culture, untreated outgrowths contained pluripotent, trophoblast and primitive endoderm cells): consisting only of cells with morphology, characteristic of bovine ES-like cells
Expression of markers of pluripotency Oct4, Rex1 and SSEA-1 in TRO outgrowths ([1]; 5 μM, in control outgrowths only the PC part expressed the markers): all the cells expressed these markers
Diameter of TRO outgrowths ([1]; 5 μM, over the next 9-12 days, without any changes in morphology): about 2 cm
Same effects on primary and passaged cultures at reduced concentration ([1]; concentration reduced to below 2.5 μM): not observed
Time for passaged colonies to reach confluence ([1]; passaged TRO in the presence of 5′-azacytidine, depends on number of pieces in the dish): 14 to 21 days
Colony formation of passaged TRO outgrowths ([1]; primary TRO cultured 14-21 days, split into 600-800 μm pieces, passaged onto fresh feeder layer, cultured in the presence of 5′-azacytidine): able to form colonies of cells with uniform morphology, characteristic of bovine ES-like cells
Expression of GFP transgene under control of Oct4 in putative ESCs ([2]; then 0.1 μM in modified ESC medium): expressed a GFP transgene
Formation of ESC-like colonies from embryonal explants ([2]; then 0.1 μM in modified ESC medium on feeder layer, 8-10 days of culture): colonies of cells resembling ESCs were observed

Source: patent US20100138947A1, “Method for Producing Stem Cells or Stel Cell-Like Cells from Mammalian Embryos” (priority 2005, published 2010)
